In patent US20260256807A1, “SUBSTITUTED PYRAZOLES AND IMIDAZOLES AS OREXIN RECEPTOR ANTAGONISTS COMPOSITION, METHODS FOR TREATING NEUROLOGICAL AND PSYCHOLOGICAL DISORDERS” (HAGER BIOSCIENCES, LLC, priority 2022, published 2026):

What was measured:
human orexin-1 receptor = target: T1, human orexin-1 receptor (Homo sapiens, UniProt O43613); test: Intracellular calcium (FLIPR) antagonist assay, CHO cells expressing human orexin-1 receptor, 3 nM orexin-A; assay type: cell-based; conditions: 1 uM compound, orexin-A 3 nM; for inhibition at 1 µM: CHO, read-out: OXIR % Inh. @ 1 uM
T1 construct: expressed in transfected cells; host or cells: CHO cells (G418 selection)
T1 sequence (O43613 1-425): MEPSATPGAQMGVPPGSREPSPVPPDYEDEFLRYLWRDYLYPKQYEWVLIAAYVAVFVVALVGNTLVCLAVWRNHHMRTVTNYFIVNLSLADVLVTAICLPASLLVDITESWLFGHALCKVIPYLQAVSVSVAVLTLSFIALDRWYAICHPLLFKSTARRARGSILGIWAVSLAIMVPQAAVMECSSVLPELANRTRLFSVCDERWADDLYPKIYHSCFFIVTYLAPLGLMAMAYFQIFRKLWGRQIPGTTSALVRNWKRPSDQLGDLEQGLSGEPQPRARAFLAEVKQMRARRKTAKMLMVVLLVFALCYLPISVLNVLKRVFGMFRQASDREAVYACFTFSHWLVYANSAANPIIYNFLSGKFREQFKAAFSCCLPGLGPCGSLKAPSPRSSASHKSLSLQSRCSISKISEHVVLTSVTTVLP
Protocol: (§1) Antagonistic activities on both orexin receptors (i.e., to identify Orexin Receptor Antagonists) have been measured for each example compound using the in vitro assays (intracellular calcium measurements) as described herein. Other assays may also be used to identify Orexin Receptor Antagonists as would be understood by those of ordinary skill in the art. Chinese hamster ovary (CHO) cells expressing the human orexin-1 receptor and the human orexin-2 receptor, respectively, are grown in culture medium (Ham F-12 with L-Glutamine) containing 300 μg/mL G418, 100 U/mL penicillin, 100 μg/mL streptomycin and 10% heat inactivated fetal calf serum (FCS). The cells are seeded at 20′000 cells/well into 384-well black clear bottom sterile plates (Greiner). The seeded plates are incubated overnight at 37° C. in 5% CO2. Human orexin-A as an agonist is prepared as 1 mM stock solution in MeOH: water (1:1), diluted in HBSS containing 0.1% bovine serum albumin (BSA), NaHC03: 0.375 g/L and 20 mM HEPES for use in the assay at a final concentration of 3 nM.
(§2) Antagonists were prepared as 10 mM stock solution in DMSO, then diluted in 384-well plates using DMSO followed by a transfer of the dilutions into in HBSS containing 0.1% bovine serum albumin (BSA), NaHC03: 0.375 g/L and 20 mM HEPES. On the day of the assay, 50 μL of staining buffer (HBSS containing 1% FCS, 20 mM HEPES, NaHC03: 0.375 g/L, 5 mM probenecid (Sigma) and 3 μM of the fluorescent calcium indicator fluro-4 AM (1 mM stock solution in DMSO, containing 10% pluronic) is added to each well. The 384-well cell-plates are incubated for 50 min at 37° C. in 5% C02 followed by equilibration at RT for 30 min before measurement. Within the Fluorescent Imaging Plate Reader (FLIPR Tetra, Molecular Devices), potential Orexin Receptor Antagonists were added to the plate in a volume of 10 μl/well, incubated for 120 min and finally 10 μL/well of agonist is added. Fluorescence was measured for each well at 1 second intervals, and the height of each fluorescence peak compared to the height of the fluorescence peak induced by 3 nM orexin-A with vehicle in place of antagonist. The IC50 value (the concentration of compound needed to inhibit 50% of the agonistic response) was determined and normalized using the obtained IC50 value of an on-plate reference compound. Optimized conditions were achieved by adjustment of pipetting speed and cell splitting regime. The calculated IC50 values fluctuate depending on the daily cellular assay performance, as is known to those skilled in the art. In the case where IC50 values have been determined several times for the same compound, the geometric mean has been given.

human orexin-2 receptor = target: T2, human orexin-2 receptor (Homo sapiens, UniProt O43614); test: Intracellular calcium (FLIPR) antagonist assay, CHO cells expressing human orexin-2 receptor, 3 nM orexin-A; assay type: cell-based; conditions: 1 uM compound, orexin-A 3 nM; for inhibition at 1 µM: CHO, read-out: OX2R % Inh. @ 1uM
T2 construct: expressed in transfected cells; host or cells: CHO cells (G418 selection)
T2 sequence (O43614 1-444): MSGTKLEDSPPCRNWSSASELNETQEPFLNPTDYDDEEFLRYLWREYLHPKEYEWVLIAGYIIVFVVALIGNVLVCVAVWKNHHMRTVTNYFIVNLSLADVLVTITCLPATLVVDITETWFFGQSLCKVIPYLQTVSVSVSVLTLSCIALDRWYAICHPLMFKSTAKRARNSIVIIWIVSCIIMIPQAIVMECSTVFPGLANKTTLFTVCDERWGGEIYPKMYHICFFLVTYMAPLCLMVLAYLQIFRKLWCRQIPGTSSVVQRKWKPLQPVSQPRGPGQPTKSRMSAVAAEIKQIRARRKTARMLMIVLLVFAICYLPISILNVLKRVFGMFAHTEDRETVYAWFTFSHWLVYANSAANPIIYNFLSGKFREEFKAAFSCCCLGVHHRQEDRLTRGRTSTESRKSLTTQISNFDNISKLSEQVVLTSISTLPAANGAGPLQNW
Protocol: as §1, §2

SMILES | inhibition at 1 µM (human orexin-1 receptor) | inhibition at 1 µM (human orexin-2 receptor) | OXIR % Inh. @ 1 uM (human orexin-1 receptor) | OX2R % Inh. @ 1uM (human orexin-2 receptor)
O=C(c1c(-c2ccccc2)nn2ccccc12)N1CCCN(c2nc3cc(Cl)ccc3o2)CC1 [Example 1] | 98.7% | 94.9% | – | –
O=C(c1c(-c2ccccc2)nn2c1COCC2)N1CCCN(c2nc3cc(Cl)ccc3o2)CC1 [Example 2] | 64.2% | 43.4% | – | –
O=C(c1c(-c2ccccc2)nc2ccccn12)N1CCCN(c2nc3cc(Cl)ccc3o2)CC1 [Example 3] | 94% | 71.8% | – | –
C[C@@H]1CCN(c2nc3cc(Cl)ccc3o2)CCN1C(=O)c1c(-c2ccccc2)nc2ccccn12 [Example 5] | 98.5% | 94.5% | – | –
C[C@@H]1CCN(c2nc3cc(Cl)ccc3o2)CCN1C(=O)c1c(-c2ccccc2)nc2n1CCCC2 [Example 6] | 62.5% | 33.4% | – | –
C[C@@H]1CCN(c2nc3cc(Cl)ccc3o2)CCN1C(=O)c1c(-c2ccccc2)nn2c1COCC2 [Example 7] | 91% | 54.5% | – | –
C[C@@H]1CCN(c2nc3cc(Cl)ccc3o2)CCN1C(=O)c1nn2ccccc2c1-c1ccccc1 [Example 8] | 98% | 82.7% | – | –
C[C@@H]1CCN(c2nc3cc(Cl)ccc3o2)CCN1C(=O)c1nc2n(c1-c1ccccc1)CCCC2 [Example 9] | 49.6% | 12.2% | – | –
C[C@@H]1CCN(c2nc3cc(Cl)ccc3o2)CCN1C(=O)c1c(-c2ccccc2)nn2c1CCCC2 [Example 10] | 85.9% | 55.1% | – | –
COc1ccc(N2CC[C@@H](C)N(C(=O)c3c(-c4ccccc4)nn4c3COCC4)CC2)nn1 [Example 11] | 12.2% | 21.5% | – | –
COc1ccc(N2CC[C@@H](C)N(C(=O)c3c(-c4ccccc4)nn4c3COCC4)CC2)nc1 [Example 12] | 14.7% | 25% | – | –
COc1ccc(N2CC[C@@H](C)N(C(=O)c3c(-c4ccccc4)nn4ccccc34)CC2)nn1 [Example 13] | 45.1% | 38.6% | – | –
COc1ccc(N2CC[C@@H](C)N(C(=O)c3c(-c4ccccc4)nn4ccccc34)CC2)nc1 [Example 14] | 91.6% | 57.6% | – | –
COc1ccc(N2CC[C@@H](C)N(C(=O)c3c(-c4ccccc4)nn4ccccc34)CC2)cn1 [Example 15] | 38.7% | 37.1% | – | –
COc1ccc(N2CC[C@@H](C)N(C(=O)c3c(-c4ccccc4)nn4c3COCC4)CC2)cn1 [Example 16] | -21.1% | 3.3% | – | –
C[C@@H]1CCN(c2ccc(C(F)(F)F)cn2)CCN1C(=O)c1c(-c2ccccc2)nn2ccccc12 [Example 17] | 96.3% | 66.7% | – | –
C[C@@H]1CCN(c2ccc(C(F)(F)F)cn2)CCN1C(=O)c1c(-c2ccccc2)nn2c1COCC2 [Example 18] | 82.5% | 35.5% | – | –
C[C@@H]1CCN(c2ccc(C(F)(F)F)cn2)CCN1C(=O)c1c(-c2ccccc2)nc2ccccn12 [Example 19] | 94.5% | 48.2% | – | –
COc1ccc(N2CC[C@@H](C)N(C(=O)c3c(-c4ccccc4)nc4ccccn34)CC2)nc1 [Example 20] | 62.1% | 32.2% | – | –
COc1ccc(N2CC[C@@H](C)N(C(=O)c3c(-c4ccccc4)nc4ccccn34)CC2)nn1 [Example 21] | 20.9% | 23.7% | – | –

SMILES | inhibition at 1 µM (human orexin-1 receptor) | inhibition at 1 µM (human orexin-2 receptor) | OXIR % Inh. @ 1 uM (human orexin-1 receptor) | OX2R % Inh. @ 1uM (human orexin-2 receptor)
COc1ccc(N2CC[C@@H](C)N(C(=O)c3c(-c4ccccc4)nc4ccccn34)CC2)cn1 [Example 22] | 15% | 28.3% | – | –
C[C@@H]1CCN(c2ccc(F)cn2)CCN1C(=O)c1c(-c2ccccc2)nc2ccccn12 [Example 23] | 18.6% | 32.7% | – | –
C[C@@H]1CCN(c2ccc(F)cn2)CCN1C(=O)c1c(-c2ccccc2)nn2ccccc12 [Example 24] | 44.2% | 46% | – | –
C[C@@H]1CCN(c2ccc(F)cn2)CCN1C(=O)c1c(-c2ccccc2)nn2c1COCC2 [Example 25] | 11.6% | 7.7% | – | –
Cc1cc(C)nc(N2CC3CN(C(=O)c4c(-c5ccccc5)nc5ccc(F)cn45)CC3C2)n1 (centres unmarked) [Example 26] | 1.61% | 33.8% | – | –
Cc1cc(C)nc(N2CC3CN(C(=O)c4c(-c5ccc(F)cc5)nc5ccccn45)CC3C2)n1 (centres unmarked) [Example 27] | 6.42% | 14.2% | – | –
Cc1cc(C)nc(N2CC3CN(C(=O)c4c(-c5ccccc5F)nc5ccccn45)CC3C2)n1 (centres unmarked) [Example 28] | 18.3% | 36.6% | – | –
Cc1cc(C)nc(N2CC3CN(C(=O)c4c(-c5ccccc5F)nc5ccccn45)CC3C2)n1 (centres unmarked) [Example 29] | – | – | 19.54% | 34.14%
Cc1cc(C)nc(N2CC3CN(C(=O)c4c(-c5ccc(F)cc5)nn5ccccc45)CC3C2)n1 (centres unmarked) [Example 30] | 28.3% | 36.8% | – | –
Cc1cc(C)nc(N2CC3CN(C(=O)c4nc5ccccn5c4-c4ccc(F)cc4)CC3C2)n1 (centres unmarked) [Example 31] | 8.04% | 3.74% | – | –
Cc1cc(C)nc(N2CC3CN(C(=O)c4nc5ccccn5c4-c4ccccc4F)CC3C2)n1 (centres unmarked) [Example 32] | 4.01% | 12.1% | – | –
Cc1cc(C)nc(N2CC3CN(C(=O)c4nn5ccccc5c4-c4ccc(F)cc4)CC3C2)n1 (centres unmarked) [Example 33] | 5% | 17.6% | – | –
Cc1cc(C)nc(N2CC3CN(C(=O)c4nn5ccccc5c4-c4ccccc4F)CC3C2)n1 (centres unmarked) [Example 34] | 2.36% | 31.4% | – | –
O=C(c1c(-c2ccccc2)nc2ccc(F)cn12)N1CC2CN(c3ccc(C(F)(F)F)cn3)CC2C1 (centres unmarked) [Example 35] | 59.1% | 22.5% | – | –
O=C(c1c(-c2ccccc2)nc2cc(F)ccn12)N1CC2CN(c3ccc(C(F)(F)F)cn3)CC2C1 (centres unmarked) [Example 36] | 35% | 23.6% | – | –
Cc1cc(C)nc(N2CC3CN(C(=O)c4c(-c5ccccc5)nc5cc(C(F)(F)F)ccn45)CC3C2)n1 (centres unmarked) [Example 37] | 5.33% | 46.9% | – | –
Cc1cc(C)nc(N2CC3CN(C(=O)c4ccccc4-c4cnc5ccccn45)CC3C2)n1 (centres unmarked) [Example 38] | 6.86% | 3.32% | – | –
Cc1cc(C)nc(N2CC3CN(C(=O)c4c(-c5ccc(F)cc5)nn5c4COCC5)CC3C2)n1 (centres unmarked) [Example 39] | 14.9% | – | – | 29.13%
Cc1cc(C)nc(N2CC3CN(C(=O)c4c(-c5ccc(F)cc5)nn5c4COCC5)CC3C2)n1 (centres unmarked) [Example 40] | – | – | 11.58% | 7.18%
Cc1cc(C)nc(N2CC3CN(C(=O)c4c(-c5ccccc5)nn5c4COCC5)CC3C2)n1 (centres unmarked) [Example 41] | 6% | 11.5% | – | –
